Experimental data published in PubChem BioAssay (NCI).
“And” between values parts separate entries of the source, which are not always exact repeats. Equal values may be shown once.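 Tested at 5 concentrations; 48 h exposure; 96-well plates; endpoints linearly interpolated, else capped at highest concentration. Abbreviation: GI50, concentration required for 50% inhibition of growth. TGI denotes the concentration required for complete inhibition of growth.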

Assays:
Assay in all cases: NCI anticancer screen, dose series, 48 h
BT-549 breast = test system: BT-549 breast
HCC-2998 colon = test system: HCC-2998 colon
HOP-92 NSCLC = test system: HOP-92 NSCLC
MDA-MB-435 = test system: MDA-MB-435
RXF 393 renal = test system: RXF 393 renal
SK-MEL-28 melanoma = test system: SK-MEL-28 melanoma
SK-OV-3 ovarian = test system: SK-OV-3 ovarian
SNB-19 CNS = test system: SNB-19 CNS
SR leukemia = test system: SR leukemia
SW-620 colon = test system: SW-620 colon

| Structure (SMILES) | TGI (BT-549 breast) [µM] | TGI (HCC-2998 colon) | TGI (HOP-92 NSCLC) | TGI (MDA-MB-435) [µM] | TGI (RXF 393 renal) | TGI (SK-MEL-28 melanoma) [µM] | TGI (SK-OV-3 ovarian) | TGI (SNB-19 CNS) [µM] | TGI (SR leukemia) [µM] | TGI (SW-620 colon) [µM] | GI50 (BT-549 breast) [µM] | GI50 (HCC-2998 colon) [µM] | GI50 (HOP-92 NSCLC) [µM] | GI50 (MDA-MB-435) [µM] | GI50 (RXF 393 renal) [µM] | GI50 (SK-MEL-28 melanoma) [µM] | GI50 (SK-OV-3 ovarian) [µM] | GI50 (SNB-19 CNS) [µM] | GI50 (SR leukemia) [µM] | GI50 (SW-620 colon) [µM] |
| --- | --- | --- | --- | --- | --- | --- | --- | --- | --- | --- | --- | --- | --- | --- | --- | --- | --- | --- | --- | --- |
| Cc1c2cnccc2c(C)c2c1c1ccccc1n2CCOC(=O)c1ccccc1 | > 100 | 29.8 µM | 71.9 µM | > 100 | 27.3 µM | 47.2 | 25.5 µM | 40.2 | 45.9 | 53.7 |  |  |  |  |  |  |  |  |  |  |
| CCOC(=O)c1noc2c1CCc1c-2cn(Cc2ccc(OC)cc2)c1-c1cc(OC)c(OC)c(OC)c1 | 35.1 | > 100 µM | > 100 µM | > 100 | 45.6 µM | > 100 | > 100 µM | > 100 | > 100 | > 100 | 1.47 | 5.17 | 2.72 | 0.574 | 2.17 | 1.9 | 5.23 | 0.668 | 2.09 | 0.497 |
| COc1cc(/C=C2\CC3C4CC=C5CC(OC(C)=O)CC[C@]5(C)C4CC[C@]3(C)C2=O)ccc1OCCN1CCCC1 (stereo partly drawn) | 38.3 | 25 µM | 28.6 µM | 13.1 | 11.6 µM |  | > 63.9 µM | > 66.9 | 2.87 | 22.9 | 14.7 | 12.5 | 13.5 | 3.38 | 3.01 | 2.54 | 23.7 | 23.6 | 0.708 | 4.89 |
| CC[C@@]1(OP(=O)(O)O)C(=O)OCc2c1cc1n(c2=O)Cc2cc3ccccc3nc2-1 | 4.55 | 6.06 µM and 8.45 µM | 2.7 µM and 6.46 µM | 2.11 | 3.52 µM and 0.81 µM | 57.7 | 7.98 µM and 6.46 µM | 39.3 | 0.0566 | 9.44 |  | 1.57 | 1.24 |  | 0.144 | 1.86 | 0.105 | 0.143 |  |  |
| ClC1=C(Cl)C(Cl)(C2(Cl)C(Cl)=C(Cl)C(Cl)=C2Cl)C(Cl)=C1Cl | 3.67 | 4 µM | 0.437 µM | 2.13 | 0.396 µM | 0.847 | 4.54 µM | 3.33 | 1.52 | 0.391 | 1.68 | 2.13 | 0.175 | 0.67 | 0.186 | 0.279 | 2.26 | 1.79 | 0.272 | 0.19 |
| CC(C)=CC[C@@H]1CC2(CC=C(C)C)C(=O)C(OC3(C(=O)c4ccccc4)C(=O)C4(CC=C(C)C)C[C@@H](CC=C(C)C)C(C)(C)C(CC=C(C)C)(C4=O)C3=O)(C(=O)c3ccccc3)C(=O)C(CC=C(C)C)(C2=O)C1(C)C (stereo partly drawn) | 1.89 | 3.09 µM | 2.86 µM | 4.46 | 2.69 µM | 3.25 | 4 µM | 6.65 | 50 | 8.29 | 0.884 | 1.21 | 1.08 | 1.41 | 1.13 | 1.18 | 1.41 | 1.64 | 1.67 | 1.92 |
| COC(=O)c1c2c(c(C)[n+]([O-])c1C)C(=O)C(NCc1ccc(OC)cc1)=CC2=O | 13.3 | 5.94 µM | 5.91 µM | 3.15 | 3.7 µM | 11.3 | 15.8 µM | 5.03 | > 100 | 4.26 | 2.96 | 2.27 | 2.64 | 1.73 | 1.55 | 2.95 | 4.11 | 2.11 | 2.47 | 1.95 |
| CCCCn1c(=O)[nH]c(N)c([C@@H]2c3c([nH]c(=O)n(CCCC)c3=O)Oc3ccc4ccccc4c32)c1=O | 3.57 | 3.47 µM | 6.5 µM | 3.11 | 4.27 µM | 6.23 | 11.9 µM | 3.36 | 15.8 | 1.18 | 1.83 | 1.67 | 2 | 1.7 | 2.17 | 2.52 | 2.74 | 1.72 | 0.458 | 0.37 |
| COc1ccc(C2=NN(C(N)=S)C(c3ccc4c(c3)OCO4)C2)cc1 (stereo not drawn) | 20.5 | 5.85 µM | 8.05 µM | 7.26 | > 100 µM | > 100 | 6.12 µM | 22.8 | 11.8 | 5.92 | 2.89 | 2.3 | 2.12 | 2.39 | 4.28 | 9.33 | 2.35 | 3.13 | 3.08 | 2.29 |
| Cn1ncnc1[C@@H]1c2n[nH]c(=O)c3cc(F)cc(c23)N[C@H]1c1ccc(F)cc1 | > 100 | > 100 µM | > 100 µM | > 100 | > 100 µM | > 100 | > 100 µM | > 100 | > 100 | > 100 | > 100 | > 100 | 92.6 | > 100 | > 100 | > 100 | > 100 | > 100 | 33.2 | > 100 |
| CCN(Cc1ccc(OC)cc1)c1ccc(CO)c(Cl)c1 | 37.4 | 40.4 µM | 20.7 µM | 43.6 | 28.3 µM | 36.6 | 30.8 µM | > 100 | > 72.5 | > 100 | 12.7 | 12.9 | 2.17 | 16.7 | 7.35 | 16.3 | 6.7 | 26.8 | 24.7 | 1.04 |
| COc1cc2cc(NCc3cccc(Cl)c3)nc(C)c2cc1OC | 8.96 | 14.5 µM | 14.3 µM | 6.26 | 16.3 µM | 5.42 | 33.5 µM | 31.8 | 44.9 | 12.6 | 1.47 | 2.27 | 0.597 | 0.969 | 3.57 | 0.865 | 4.94 | 2.12 | 1.66 | 1.93 |
| O=P1(NCCCl)OCCCN1CCCl (stereo not drawn) | > 500 | 427 µM | 367 µM | > 500 | 445 µM | 439 | 424 µM | 418 | > 500 | 401 |  |  |  |  |  |  |  |  |  |  |
| O=C1NC(=O)C(c2c[nH]c3ccccc23)=C1c1c[nH]c2ccccc12 | > 25 | > 25 µM | > 25 µM | > 25 | 24.3 µM | > 25 | > 25 µM | > 25 | > 25 | > 25 | 10.3 | 16.2 | 5.72 | 6.86 | 4.57 | 15.1 | 13.5 | > 25 | 6.87 | 13.3 |
| CCN1CCN(CCC(=O)Nc2cccc(-n3cc(-c4ccncc4)c(-c4ccc(Cl)c(OC)c4)n3)c2)CC1 | 4.43 | 2.63 µM | 6.43 µM | 0.35 | 1.43 µM | 2.97 | 7.67 µM | 5.61 | 2.37 | 1.5 | 1.38 | 1.27 | 0.776 | 0.123 | 0.244 | 1.39 | 1.84 | 1.08 | 0.433 | 0.338 |
| CCOc1ccc(N(C)c2ccc(/C=C/C3=[N+](C)c4ccccc4C3(C)C)cc2)cc1 | 1.16 | 1.55 µM | 0.86 µM | 1.32 | 1.95 µM | 2.11 | 1.44 µM | 1.8 | 0.633 | 1.19 | 0.216 | 0.391 | 0.197 | 0.231 | 0.471 | 0.68 | 0.354 | 0.367 | 0.0499 | 0.175 |
| CC1CCCCCC(=O)c2c(O)cc(O)cc2CC(=O)O1 (stereo not drawn) | > 100 | > 100 µM | > 100 µM | > 100 | > 100 µM | > 100 | > 100 µM | > 100 | > 100 | > 100 |  |  |  |  |  |  |  |  |  |  |
| C=C(CO)C(=O)OC1CC(=C)C2CC(O)C(C)C2C2OC(=O)C(=C)C12 (stereo not drawn) | 32.3 | 40.9 µM | 77.6 µM | 45.2 | 36.4 µM | 57.6 | > 100 µM | 61.6 | 51.2 | 92.7 |  |  |  |  |  |  |  |  |  |  |
| CCC(=C(c1ccc(OCCN2CCCCC2)cc1)c1ccc(OCCN2CCCCC2)cc1)c1ccc(Cl)cc1 | > 16.7 | > 16.7 µM | > 16.7 µM | 5.39 | 16.6 µM | 5.26 | > 16.7 µM | > 16.7 | 1.27 | > 16.7 | > 16.7 | 2.8 | 1.57 | 2.61 | 3.08 | 2.8 | > 16.7 | 5.91 | 0.425 | 4.1 |
| O=C(O)c1ccc(N(/C=C/C(=O)C(F)(F)F)Cc2ccc(Cl)cc2)cc1 | 67 | 44.3 µM | 82.4 µM | > 100 | > 100 µM | 84 | > 100 µM | > 100 | 71.5 | > 100 | 38.7 | 19.8 | 19.5 | 35.5 | 46.3 | 32.9 | 35.5 | 47.9 | 27.3 | 35.9 |
| COc1cc(/C=C/C(=O)c2cccc(-n3cc(-c4ccccc4)[nH]c3=O)c2)cc(OC)c1OC | 5.47 | 2.51 µM | 35.6 µM | 5.35 | 3.53 µM | 3.2 | 11.3 µM | 5.69 | > 100 | 1.39 | 1.93 | 1.26 | 10.8 | 1.2 | 1.71 | 1.74 | 3.27 | 2.35 | 0.565 | 0.39 |
| C=CCc1cccc(C=O)c1O | > 100 | > 100 µM | 59 µM | > 100 | > 100 µM | > 100 | > 100 µM | > 100 | > 100 | > 100 | 10.4 | > 100 | 0.809 | > 100 | 94 | > 100 | > 100 | 14.6 | 22 | 50.6 |
| O=[N+]([O-])c1ccc(C2=NCCO2)cc1 | > 100 | > 100 µM | > 100 µM | > 100 | > 100 µM | > 100 | > 100 µM | > 100 | > 100 | > 100 | > 100 | > 100 | > 100 | > 100 | > 100 | > 100 | > 100 | > 100 | > 100 | > 100 |
| CNC(=O)Oc1cc(C(C)C)ccc1Sc1ccc(C(C)C)cc1OC(=O)NC | 12 | 27.7 µM | 9.85 µM | 10 | 9.34 µM | 17.9 | 23.7 µM | 24.4 | 10 | 20.1 | 3.44 | 12.2 | 2.63 | 2.29 | 2.52 | 4.99 | 10.5 | 9.57 | 2.2 | 5.01 |
| CN(C)CCNC(=O)c1cc2c3cc(Cl)ccc3[nH]c2c2ncccc12 | 7.98 |  | 11.2 µM | 4.22 | 4.28 µM | 4.18 | 24.4 µM | 19.7 | 4.1 | 3.52 | 2.26 |  | 2.36 | 1.95 | 1.74 | 2.12 | 6.89 | 4.52 | 1.68 | 1.47 |
